Several values for one entry are separate records, joined by “and”; a condition that tells them apart may be missing. Identical values can stand only once.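 Results reflect a 48-hour exposure of cells in 96-well plates to compound at five concentrations. GI50 marks 50% less growth. TGI marks complete inhibition of growth.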
Tests used:
Assay in all cases: NCI-60 cell line screen, 48 h
SK-MEL-28 melanoma = tested on: SK-MEL-28 melanoma
UACC-257 melanoma = tested on: UACC-257 melanoma
CAKI-1 renal = tested on: CAKI-1 renal
OVCAR-4 ovarian = tested on: OVCAR-4 ovarian
786-0 renal = tested on: 786-0 renal
HOP-62 NSCLC = tested on: HOP-62 NSCLC
MCF7 breast = tested on: MCF7 breast
UO-31 renal = tested on: UO-31 renal
ACHN renal = tested on: ACHN renal
BT-549 breast = tested on: BT-549 breast

| SMILES | GI50 (SK-MEL-28 melanoma) | TGI (SK-MEL-28 melanoma) | GI50 (UACC-257 melanoma) | TGI (UACC-257 melanoma) | GI50 (CAKI-1 renal) | TGI (CAKI-1 renal) | GI50 (OVCAR-4 ovarian) | TGI (OVCAR-4 ovarian) | GI50 (786-0 renal) | TGI (786-0 renal) | GI50 (HOP-62 NSCLC) | TGI (HOP-62 NSCLC) | GI50 (MCF7 breast) | TGI (MCF7 breast) | GI50 (UO-31 renal) | TGI (UO-31 renal) | GI50 (ACHN renal) | TGI (ACHN renal) | GI50 (BT-549 breast) | TGI (BT-549 breast) |
| --- | --- | --- | --- | --- | --- | --- | --- | --- | --- | --- | --- | --- | --- | --- | --- | --- | --- | --- | --- | --- |
| Cc1cn(-c2cc(NC(=O)c3ccc(C)c(Nc4nccc(-c5cccnc5)n4)c3)cc(C(F)(F)F)c2)cn1 | 1.81 µM and 1.4 µM | 5.97 µM and 3.18 µM | 4.46 µM and 2.49 µM | > 10 µM and 7.97 µM | > 10 µM and 7.37 µM | > 10 µM and 14.3 µM | 5.15 µM and 2.39 µM | > 10 µM and 7.32 µM | > 10 µM and 2.24 µM | > 10 µM and 7.1 µM | > 10 µM and 8.92 µM | > 10 µM and 26.3 µM | 2.49 µM and 2.35 µM | 7.39 µM and 7.55 µM | 1.75 µM and 1.58 µM | 8.9 µM and 4.56 µM | > 10 µM and 9.36 µM | > 10 µM and 27.2 µM | 5.38 µM and 3.57 µM | > 10 µM and 10 µM |
| O=C(OC[C@H]1O[C@H](OC(=O)c2cc(O)c(O)c(OC(=O)c3cc(O)c(O)c(O)c3)c2)[C@H](OC(=O)c2cc(O)c(O)c(OC(=O)c3cc(O)c(O)c(O)c3)c2)[C@@H](OC(=O)c2cc(O)c(O)c(OC(=O)c3cc(O)c(O)c(O)c3)c2)[C@@H]1OC(=O)c1cc(O)c(O)c(OC(=O)c2cc(O)c(O)c(O)c2)c1)c1cc(O)c(O)c(OC(=O)c2cc(O)c(O)c(O)c2)c1 | 12.8 µM | > 25 µM | 13.4 µM | > 25 µM | 1.39 µM | > 25 µM | 4.67 µM | 18.3 µM | 4.89 µM | 20.2 µM | 1.78 µM | > 25 µM | 5.21 µM | 11.1 µM | 2.61 µM | > 25 µM | 6.42 µM | > 25 µM | 6.77 µM | > 25 µM |
| Cn1cc(-c2ccc(-c3ccc(C4=NC5(CC5)C(=O)N4C[C@@H]4CCN(C(=O)C5CC5)C4)cc3)cc2)cn1 | 20.3 µM | 79 µM | 39.3 µM | > 100 µM | 12.6 µM | > 100 µM | 5.74 µM | > 100 µM | 10.5 µM | > 100 µM | 25.2 µM | > 100 µM | 1.12 µM | > 100 µM | 1.47 µM | > 100 µM | 14.3 µM | > 100 µM | 6.09 µM | 26.1 µM |
| O=C1C(=O)c2cccnc2-c2ncccc21 | 0.472 µM | 1.8 µM | 0.268 µM | 0.924 µM | 0.605 µM | 1.92 µM | 0.139 µM | 0.268 µM | 1.22 µM | 2.5 µM | 0.225 µM | 0.882 µM | 0.232 µM | 0.554 µM | 0.159 µM | 0.486 µM | 0.0545 µM | 0.318 µM | 0.242 µM | 1.19 µM |
| Cc1cc(N2CCOCC2)cc2[nH]c(-c3c(NC[C@@H](O)c4cccc(Cl)c4)cc[nH]c3=O)nc12 | 2.15 µM | 13.5 µM | 0.385 µM | 7.37 µM | 1.46 µM | 5.72 µM | 4.21 µM | 40.4 µM | 1.21 µM | 4.02 µM | 2.16 µM | 12.3 µM | 0.233 µM | 15.8 µM | 0.275 µM | 2.98 µM | 2.84 µM | 80.2 µM | 1.83 µM | 7.18 µM |
| Cc1ccc(O)c(NC(=O)c2ccc(CNc3ccnc(C(F)(F)F)c3)cc2)c1 | 13.8 µM | 39.9 µM | 12.2 µM | 48.5 µM | 6.33 µM | 40.6 µM | 26.7 µM | > 100 µM | 5.2 µM | 47.7 µM | 4.79 µM | 30.5 µM | 4.06 µM | 38.9 µM | 1.12 µM | 13.3 µM | 3.66 µM | > 100 µM | 3.48 µM | 28.4 µM |
| COc1ccc2c(c1)C(=O)c1c-2n(CCCI)c(=O)c2cc([N+](=O)[O-])ccc12 | 0.861 µM and 3.07 µM | 50 µM and > 100 µM | 0.914 µM and 4.13 µM | 17.4 µM and 37.9 µM | 0.472 µM and 0.309 µM | 48.6 µM and 6.86 µM | 1.03 µM and 3.72 µM | 11.9 µM and 84.3 µM | 0.106 µM and 0.0522 µM |  | 0.143 µM | 7.77 µM | 0.0105 µM and 0.0343 µM |  | 0.36 µM and 0.0716 µM | 13.1 µM and 10.4 µM | 0.138 µM and 0.0293 µM | 1.03 µM and 0.239 µM | 0.112 µM and 0.786 µM |  |
| CCNC(=O)O[C@H]1CN[C@H](C#Cc2cc3ncnc(Nc4ccc(OCc5cccc(F)c5)c(Cl)c4)c3s2)C1 | > 25 µM | > 25 µM | > 22.7 µM | > 25 µM | 0.88 µM | > 25 µM | 9.94 µM | > 25 µM | 5.69 µM | > 16.6 µM | 14.9 µM | > 25 µM | 8.95 µM | > 25 µM | 1.49 µM | > 18.4 µM | 1.99 µM | > 25 µM | 3.89 µM | 9.38 µM |
| CC(C)CC(NC(=O)OC(C)(C)C)C(=O)Nc1ccc(Nc2nc(F)nc(-c3c4ccccc4cn3C)n2)cc1 (stereo unspecified) |  | > 100 µM |  | > 100 µM |  | > 100 µM |  | > 100 µM |  | > 100 µM |  | 42.6 µM |  | 31.4 µM |  | > 100 µM |  | > 100 µM |  | > 100 µM |
| O=C1CCc2c(sc3[nH]c(=S)n(Cc4ccc(Cl)cc4)c(=O)c23)C1 | 0.64 µM | > 21.1 µM | 1.33 µM | 5.72 µM | 0.451 µM |  | 0.388 µM | 28.2 µM | 1.23 µM | > 100 µM | 1.47 µM | > 100 µM | 2.22 µM | > 38.6 µM | 0.277 µM | 1.21 µM | 0.465 µM | 3.63 µM | 0.363 µM | 3.03 µM |
